From US20230310445A1, “LOX ENZYME INHIBITING METHODS AND COMPOSITIONS” (ANOVIA BIOSCIENCES, INC., priority 2020, published 2023) come the findings set out here.

Read-outs that look alike come from different tables or passages of the source.

The data set in a line: PK study following IV and PO administration in male CD1 mice. It counts as in vivo, mouse. More on the design: AUClast/D: unit: (ng*h/mL)/(mg/kg). The following applies: for AUClast/D / CIobs / AUC(0-inf) / AUC(0-t) / C0 / half-life / MRT inf / Vd / Cmax / Tmax: plasma, mean of three mice; for CIobs: unit assumed; for F: PO 50 mg/kg versus IV 10 mg/kg; for AUC(0-inf) / AUC(0-t) / C0 / half-life / MRT inf / Vd / Cmax / Tmax: mouse; for MRT inf: read-out: MRTInf—obs; for Vd: read-out: Vss—obs. Here is the method: The objective of this study was to determine the pharmacokinetic (PK) profile of LOX enzyme inhibiting compounds following IV and PO administrations in male CD1 mice.
Male CDT mice from a qualified provider were used for all studies. Mice were 6-8 weeks old at the time of the experiment (˜20-30 g body weight). All animals for IV & PO administration were fasted overnight and fed after 4 hours collection. The dose formulation was kept at room temperature no more than 2 hours.
Dose formulations were prepared fresh on the day of dosing and stored at ambient temperature. Dose formulations were as following: […]
Blood samples were collected from the dorsal metatarsal vein. Circa 0.03 mL were collected per time point and 0.3 mL at final time point via heart puncture. The blood samples were centrifuged at 4000 g for 5 minutes at 4° C. to obtain plasma and samples were immediately frozen in the upright position and stored at −75±15° C. prior to analysis.
Blood samples were collected at time points outlined in Table 12:
Acceptable time ranges for blood collection were as following: 5 min and 15 min: within +0.25 minute, 30 min, 1 hour, and 2 hours: within +2 minutes; 4 hours, 6 hours, 8 hours, and 24 hours: within +10 minutes.
Concentrations of LOX enzyme inhibiting compounds in the plasma were analyzed using a LC-MS/MS method. WinNonlin (Phoenix™, version 8.2) software was used for pharmacokinetic calculations. The following pharmacokinetic parameters were calculated, whenever possible from the plasma concentration versus time data:
IV administration: T1/2, C0, AUClast, AUCinf, MRTinf, Cl, Vss, Number of Points for Regression.
PO administration: T1/2, Cmax, Tmax, AUClast, AUCinf and F. Number of Points for Regression.
The pharmacokinetic data were described using descriptive statistics such as mean, standard deviation.
Results are outlined in Table 13 (IV), Table 14 (PO) and FIGS. 1-3. Data represent mean values from three mice.

Regarding `CN(C)C(=O)N1C[C@@H](c2ccccc2)C[C@@H](S(=O)(=O)c2cccc(CN)c2)C1.O=C(O)C(F)(F)F` (racemic) [Example 74, cis-3-((3-(Aminomethyl)phenyl)sulfonyl)-N,N-dimethyl-5-phenylpiperidine-1-carboxamide 2,2,2-trifluoroacetate], the F stood at 90. Under “IV, 10 mg/kg”, the AUClast/D is on record as 196; the CIobs was 85.5 mL/min/kg; the AUC(0-inf) – broadly, total exposure, with the tail of the curve extrapolated – worked out at 1970 ng·h/mL; the AUC(0-t) (commonly the area under the concentration-time curve up to a stated or last time point) turned out to be 1960 ng·h/mL. Moreover, where the note is “IV, 10 mg/kg”, the C0 was found to be 3590 ng/mL; the half-life (in general, the time in which the quantity being followed falls by half) was 53.4 min; the MRT inf was 41.5 min; the Vd came to 3.55 L/kg. Further, under “PO, 50 mg/kg”, the AUClast/D is reported as 138, the AUC(0-inf) was 8860 ng·h/mL, the AUC(0-t) amounted to 8850 ng·h/mL and the highest level (Cmax) was 5550 ng/mL. For the same compound, under “PO, 50 mg/kg”, the Tmax (commonly the time from dosing to the highest level) turned out to be 25 min, the half-life was 49.3 min and the MRT inf was found to be 74.4 min.

For `NCc1ccnc(S(=O)(=O)N2C[C@@H](C(=O)N3CCS(=O)(=O)CC3)C[C@@H](C3CCCCC3)C2)c1.O=C(O)C(F)(F)F` (racemic) [Example 146, cis-(1-((4-(Aminomethyl)pyridin-2-yl)sulfonyl)-5-cyclohexylpiperidin-3-yl)(1,1-dioxidothiomorpholino)methanone 2,2,2-trifluoroacetate], the F worked out at 7.2. Also, under “IV, 10 mg/kg”, the AUClast/D is recorded as 164, the CIobs was 103 mL/min/kg, the AUC(0-inf) came to 1650 ng·h/mL and the AUC(0-t) came out at 1640 ng·h/mL. Under “IV, 10 mg/kg”, the C0 stood at 6150 ng/mL, the half-life was 287 min, the MRT inf was 51 min and the Vd stood at 5.12 L/kg. Also, under “PO, 50 mg/kg”, the AUClast/D is 11.3, the AUC(0-inf) is 590 ng·h/mL, the AUC(0-t) was found to be 563 ng·h/mL and the highest level (Cmax) was 503 ng/mL. Moreover, for the setting “PO, 50 mg/kg”, the Tmax came to 15 min, the half-life is 337 min and the MRT inf stood at 221 min.
